Measurements as given in ChEMBL document CHEMBL1158138, “Cucurbitane triterpenes from the fruiting bodies and cultivated mycelia of Leucopaxillus gentianeus” (J Nat Prod, 2006).
≈ marks a conversion by molar mass, not a printed value. Calls of active or inactive are those of the source. No cut-off for these calls is given here.

target: T1, DNA topoisomerase 1 (Homo sapiens) (UniProt P11387); assay: Inhibition of topoisomerase 1-mediated SV40 DNA cleavage at 1 to 50 uM by gel electrophoresis; conditions: not given
T1 sequence (whole entry): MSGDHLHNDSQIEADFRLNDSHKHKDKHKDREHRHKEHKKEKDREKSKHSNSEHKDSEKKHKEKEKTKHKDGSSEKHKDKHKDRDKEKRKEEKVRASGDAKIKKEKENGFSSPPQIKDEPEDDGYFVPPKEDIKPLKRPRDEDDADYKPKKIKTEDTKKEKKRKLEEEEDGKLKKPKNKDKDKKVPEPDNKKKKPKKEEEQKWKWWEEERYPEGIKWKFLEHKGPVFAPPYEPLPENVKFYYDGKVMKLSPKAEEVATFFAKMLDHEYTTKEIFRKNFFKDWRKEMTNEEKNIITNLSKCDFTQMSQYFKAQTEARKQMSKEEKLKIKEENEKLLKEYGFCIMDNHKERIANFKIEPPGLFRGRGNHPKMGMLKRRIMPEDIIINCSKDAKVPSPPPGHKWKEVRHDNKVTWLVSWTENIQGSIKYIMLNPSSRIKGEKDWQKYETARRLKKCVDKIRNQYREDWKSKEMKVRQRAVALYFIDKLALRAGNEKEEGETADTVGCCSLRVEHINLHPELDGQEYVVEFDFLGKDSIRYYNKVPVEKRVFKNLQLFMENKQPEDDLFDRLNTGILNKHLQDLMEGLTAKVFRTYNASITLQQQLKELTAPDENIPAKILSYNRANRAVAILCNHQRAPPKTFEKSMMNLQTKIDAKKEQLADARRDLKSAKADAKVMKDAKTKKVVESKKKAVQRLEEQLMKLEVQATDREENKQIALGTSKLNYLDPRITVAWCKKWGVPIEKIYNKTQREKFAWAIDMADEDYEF

Structure (SMILES)	Activity
CC(=O)OC(C)(C)/C=C/C(=O)[C@](C)(O)[C@H]1[C@H](O)C[C@@]2(C)[C@@H]3CC=C4[C@H](C[C@H](O)C(=O)C4(C)C)[C@]3(C)C(=O)C[C@]12C [CUCURBITACIN B]	Active
CCc1c2c(nc3ccc(O)cc13)-c1cc3c(c(=O)n1C2)COC(=O)[C@]3(O)CC	Active

test system: NCI-H460; assay: Antiproliferative activity against human NCI-H460 cells after 72 hrs; assay type: functional, cell-based; conditions: NCI-H460, 72 h

Structure (SMILES)	IC50
CC[C@@]1(O)C(=O)OCc2c1cc1n(c2=O)Cc2cc3c(CN(C)C)c(O)ccc3nc2-1 [TOPOTECAN]	0.008 µg/mL (≈ 0.019 µM)
CC(C)(O)/C=C/C(=O)[C@](C)(O)[C@H]1[C@H](O)C[C@@]2(C)[C@@H]3CC=C4[C@@H](C[C@H](O)C(=O)C4(C)C)[C@]3(C)C(=O)C[C@]12C [CUCURBITACIN D]	0.12 µg/mL (≈ 0.232 µM)
CC(=O)OC(C)(C)/C=C/C(=O)[C@@](C)(O)[C@H]1CC[C@@]2(C)[C@@H]3CC=C4[C@@H](C[C@H](O)C(=O)C4(C)C)[C@]3(C)C(=O)C[C@]12C [16-DEOXYCUCURBITACIN B]	0.06 µg/mL (≈ 0.111 µM)
CC(=O)O[C@H](C[C@@H](OC(C)=O)C(C)(C)O)[C@@H](C)[C@H]1[C@H](O)C[C@@]2(C)[C@@H]3CC=C4[C@@H](CCC(=O)C4(C)C)[C@]3(C)C(=O)C[C@]12C [18-DEOXYLEUCOPAXILLONE A]	10.6 µg/mL (≈ 18 µM)
CC(=O)O[C@H](C[C@@H](OC(C)=O)C(C)(C)O)[C@@H](C)[C@H]1CC[C@@]2(C)[C@@H]3CC=C4[C@@H](CCC(=O)C4(C)C)[C@]3(C)[C@]3(O)C[C@]12CO3 [LEUCOPAXILLONE B]	0.3 µg/mL (≈ 0.51 µM)
CC(=O)O[C@H](C[C@@H](OC(C)=O)C(C)(C)O)[C@@H](C)[C@H]1CC[C@@]2(C)[C@@H]3CC=C4[C@@H](CCC(=O)C4(C)C)[C@]3(C)CC[C@]12CO [LEUCOPAXILLONE A]	3.5 µg/mL (≈ 6.09 µM)
CC(=O)OC(C)(C)/C=C/C(=O)[C@](C)(O)[C@H]1[C@H](O)C[C@@]2(C)[C@@H]3CC=C4[C@H](C[C@H](O)C(=O)C4(C)C)[C@]3(C)C(=O)C[C@]12C [CUCURBITACIN B]	0.011 µg/mL (≈ 0.0197 µM)
